Measurements from patent publication US9156790B2, “Anticancer P21-activated kinase inhibitors” (Ohio State Innovation Foundation, priority 2013, dated 2015).
“Also recorded” adds a separate entry of the source. Read-outs that look alike come from different tables or passages of the source.

Experiments:
PKBβ = PKBβ (Homo sapiens, UniProt P31751); test: Kinase profiling panel: PKBβ; format: biochemical; details: read-out: % activity vs. DMSO, PKBβ
Protocol: (§1) To further probe the selectivity of the compounds 4 and 15, they were subjected for kinase profiling service for screening against a panel of other kinases selected based on the kinase tree at 5 μM concentration, at or above the IC50 for the two compounds versus PAK in both in vitro and cell-based assays. […] PAK1 was not available for testing using this system thus it was not possible to compare directly in this assay system.

BCPAP cells = test: Boyden chamber migration assay, BCPAP; format: cell-based, Human; details: 2.5 μM and 5.0 μM, 12 hours, P<0.05 versus DMSO
Protocol: (§2) Cells were grown in media containing 10% FBS. After 24 hours, the medium was aspirated, and media containing 1% FBS was added for 24 hours. The cells were trypsinized for 2 to 5 minutes, washed, and resuspended in media containing 1% FBS. The cell concentration was calculated by hemocytometer. Four hundred μl 1% FBS medium was added into 24-well plates, and a Boyden chamber (8 μm pore) was inserted into each well. Cells were added to each insert, and were allowed to attach in an incubator at 37° C. at 5% CO2 for 2 hours. The cells were then exposed to various concentrations of drugs or control diluent for 3 hours. The inserts were switched to a new well containing media containing 10% FBS, and the chamber was incubated for 12 or 24 hours depending on the migration rate of the cell line. The cells on and under the Boyden chamber membrane were fixed with 3.7% formaldehyde containing 0.05% crystal violet for 15 min after washing cells with PBS. The chambers were washed with distilled water. […] The Q-tips containing the scraped cells and the Boyden chamber containing the non-migrated cells were separately incubated in 80% methanol, shaken at 500 g for 30 minutes, and the extracted dye was measured at 570 nm. Migration was quantified as the ratio of the migrated cells over the total cells (non-migrated plus […]). […]

PKCδ = PKCδ (Homo sapiens, UniProt Q05655); test: Kinase profiling panel: PKCδ; format: biochemical; details: 5 μM compound; average of triplicate
Chain of PKCδ (Q05655 whole entry): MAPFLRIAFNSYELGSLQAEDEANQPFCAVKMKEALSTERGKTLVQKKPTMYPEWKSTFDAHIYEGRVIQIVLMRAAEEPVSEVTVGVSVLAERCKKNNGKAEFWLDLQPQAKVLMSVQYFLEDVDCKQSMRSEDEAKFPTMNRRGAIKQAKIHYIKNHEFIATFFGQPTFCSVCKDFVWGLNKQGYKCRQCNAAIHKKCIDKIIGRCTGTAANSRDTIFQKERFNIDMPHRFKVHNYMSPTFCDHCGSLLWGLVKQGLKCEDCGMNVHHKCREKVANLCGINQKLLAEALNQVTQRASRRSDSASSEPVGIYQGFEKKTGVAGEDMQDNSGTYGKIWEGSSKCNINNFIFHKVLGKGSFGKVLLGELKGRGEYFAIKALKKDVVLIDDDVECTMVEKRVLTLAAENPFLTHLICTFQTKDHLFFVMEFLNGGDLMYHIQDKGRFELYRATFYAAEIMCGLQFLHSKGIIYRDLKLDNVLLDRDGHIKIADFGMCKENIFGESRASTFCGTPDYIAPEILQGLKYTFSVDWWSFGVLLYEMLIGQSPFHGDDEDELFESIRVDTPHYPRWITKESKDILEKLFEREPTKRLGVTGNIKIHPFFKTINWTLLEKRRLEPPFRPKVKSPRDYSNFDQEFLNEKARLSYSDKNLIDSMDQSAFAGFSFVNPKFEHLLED
Protocol: as §1

PAK6 = PAK6 (Homo sapiens, UniProt Q9NQU5); test: Kinase profiling panel: PAK6; format: biochemical; details: 5 μM compound; average of triplicate
Chain of PAK6 (Q9NQU5 whole entry, species assumed): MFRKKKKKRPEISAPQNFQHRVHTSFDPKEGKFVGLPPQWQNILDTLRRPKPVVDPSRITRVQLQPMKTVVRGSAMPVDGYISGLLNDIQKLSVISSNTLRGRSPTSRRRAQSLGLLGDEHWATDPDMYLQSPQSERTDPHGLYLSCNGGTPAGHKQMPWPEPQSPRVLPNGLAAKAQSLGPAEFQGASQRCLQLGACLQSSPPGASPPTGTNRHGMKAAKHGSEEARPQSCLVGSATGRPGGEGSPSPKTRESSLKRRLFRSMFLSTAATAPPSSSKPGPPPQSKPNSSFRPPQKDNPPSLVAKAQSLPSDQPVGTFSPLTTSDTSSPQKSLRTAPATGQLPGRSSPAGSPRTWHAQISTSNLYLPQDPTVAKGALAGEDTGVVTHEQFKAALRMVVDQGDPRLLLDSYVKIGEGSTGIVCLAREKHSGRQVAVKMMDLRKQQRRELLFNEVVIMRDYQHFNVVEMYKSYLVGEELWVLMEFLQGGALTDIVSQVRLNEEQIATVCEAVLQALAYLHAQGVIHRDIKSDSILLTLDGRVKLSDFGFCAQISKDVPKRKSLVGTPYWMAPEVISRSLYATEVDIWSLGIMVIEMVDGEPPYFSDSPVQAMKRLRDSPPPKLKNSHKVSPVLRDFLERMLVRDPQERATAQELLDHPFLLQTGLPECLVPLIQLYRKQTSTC
Protocol: as §1

Src(T341M) = Src(T341M) (Homo sapiens, UniProt P12931, T341M); test: Kinase profiling panel: Src(T341M); format: biochemical; details: 5 μM compound; average of triplicate
Protocol: as §1

TPC1 cells = test: MTT cell viability assay, TPC1; format: cell-based, Human; details: Homo sapiens, TPC1, 72-hours of exposure, 1% FBS, mean±standard deviation (n=3), read-out: IC50 for reducing viability of TPC1 cells versus DMSO control
Description: Human thyroid cancer BCPAP, TPC1, and FTC133 cell lines were the generous gifts of Drs. Rebecca Schweppe and Bryan Haugen (University of Colorado Denver) (Schweppe et al., The Journal of clinical endocrinology and metabolism 83:4331-4341 (2008)) with permission from the following originating laboratories: BCPAP—Dr. Fabien, Centre Hospitalier Lyon-Sud, France (Fabien et al., Cancer 73:2206-2212 (1994)); TPC1—Dr. Sato, Kanazawa University, Japan (Tanaka et al., Virology 161:62-411 (1987)); and FTC133—Dr. Goretzki, University of Leipzig, Germany (Goretzki et al., Recent Results Cancer Res 118:48-63 (1990)). The obtained cell lines were confirmed for identity by DNA fingerprinting. BCPAP was grown in RPMI 1640 medium (Life Technologies Co., Carlsbad, Calif.) while FTC133 and TPC1 were grown in DMEM (Life Technologies Co.), both supplemented with 10% fetal bovine serum (FBS) and NEAA unless as noted for experiments.
The effect of OSU-03012 and its derivatives on cell viability was assessed by using the 3-(4,5-dimethylthiazol-2-yl)-2,5-diphenyl-2H-tetrazolium bromide (MTT) assay. Three replicates were performed in each individual experiment, and experiments were repeated at least three separate times. Cells were grown in 96-well plates for 24 hours and were exposed to various concentrations of drugs dissolved in DMSO (final concentration 0.1%) in RPMI 1640 or DMEM containing 1% FBS for 72 hours. 10 μL of 0.5 mg/ml MTT was added to each well and cells were incubated in CO2 at 37° C. for 2 hours. Supernatants were removed from the wells, the reduced MTT dye was solubilized in 100 μL of solution C (12 ml of 1N HCl in 300 mL of isopropanol), and absorbance at 570 nm was determined on a microplate reader.
We assessed the ability of the compounds to reduce cell viability in vitro by MTT assay after 72 hours of continuous exposure. Results are shown in Table 1 and are depicted as the IC50 vs. simultaneously performed DMSO control.
^aThe reported IC50 values are concentrations at which BCPAP, FTC133 and TPC1 cell viability by MTT assays 50% of DMSO control after 72-hours of exposure. Data are presented as mean±standard deviation (n=3). PAK and PDK1 Selectivity In Vivo

PAK5 = PAK5 (Homo sapiens, UniProt Q9P286); test: Kinase profiling panel: PAK5; format: biochemical; details: 5 μM compound; average of triplicate
Chain of PAK5 (Q9P286 whole entry): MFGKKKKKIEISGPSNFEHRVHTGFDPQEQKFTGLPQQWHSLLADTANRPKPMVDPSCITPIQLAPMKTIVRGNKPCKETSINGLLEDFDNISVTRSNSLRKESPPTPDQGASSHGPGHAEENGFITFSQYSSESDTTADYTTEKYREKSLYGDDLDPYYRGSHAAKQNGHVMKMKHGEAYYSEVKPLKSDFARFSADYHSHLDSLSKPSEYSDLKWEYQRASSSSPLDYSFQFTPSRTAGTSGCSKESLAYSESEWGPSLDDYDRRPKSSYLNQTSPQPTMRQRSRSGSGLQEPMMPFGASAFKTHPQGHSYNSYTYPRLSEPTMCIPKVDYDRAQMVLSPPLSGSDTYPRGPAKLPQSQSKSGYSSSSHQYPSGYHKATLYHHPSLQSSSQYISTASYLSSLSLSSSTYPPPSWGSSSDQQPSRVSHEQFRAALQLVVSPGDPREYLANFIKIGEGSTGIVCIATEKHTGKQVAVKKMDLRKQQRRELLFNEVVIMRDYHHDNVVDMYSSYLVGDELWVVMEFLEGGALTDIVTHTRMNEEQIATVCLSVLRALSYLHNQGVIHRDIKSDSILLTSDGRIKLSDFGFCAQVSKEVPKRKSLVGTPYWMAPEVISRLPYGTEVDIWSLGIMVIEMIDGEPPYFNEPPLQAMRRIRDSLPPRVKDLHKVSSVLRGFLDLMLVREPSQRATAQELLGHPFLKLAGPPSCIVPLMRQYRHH
Protocol: as §1

PKCα = PKCα (Homo sapiens, UniProt P17252); test: Kinase profiling panel: PKCα; format: biochemical; details: 5 μM compound; average of triplicate
Protocol: as §1

FAK = FAK (Homo sapiens, UniProt Q05397); test: Kinase profiling panel: FAK; format: biochemical; details: 5 μM compound; average of triplicate
Chain of FAK (Q05397 whole entry, species assumed): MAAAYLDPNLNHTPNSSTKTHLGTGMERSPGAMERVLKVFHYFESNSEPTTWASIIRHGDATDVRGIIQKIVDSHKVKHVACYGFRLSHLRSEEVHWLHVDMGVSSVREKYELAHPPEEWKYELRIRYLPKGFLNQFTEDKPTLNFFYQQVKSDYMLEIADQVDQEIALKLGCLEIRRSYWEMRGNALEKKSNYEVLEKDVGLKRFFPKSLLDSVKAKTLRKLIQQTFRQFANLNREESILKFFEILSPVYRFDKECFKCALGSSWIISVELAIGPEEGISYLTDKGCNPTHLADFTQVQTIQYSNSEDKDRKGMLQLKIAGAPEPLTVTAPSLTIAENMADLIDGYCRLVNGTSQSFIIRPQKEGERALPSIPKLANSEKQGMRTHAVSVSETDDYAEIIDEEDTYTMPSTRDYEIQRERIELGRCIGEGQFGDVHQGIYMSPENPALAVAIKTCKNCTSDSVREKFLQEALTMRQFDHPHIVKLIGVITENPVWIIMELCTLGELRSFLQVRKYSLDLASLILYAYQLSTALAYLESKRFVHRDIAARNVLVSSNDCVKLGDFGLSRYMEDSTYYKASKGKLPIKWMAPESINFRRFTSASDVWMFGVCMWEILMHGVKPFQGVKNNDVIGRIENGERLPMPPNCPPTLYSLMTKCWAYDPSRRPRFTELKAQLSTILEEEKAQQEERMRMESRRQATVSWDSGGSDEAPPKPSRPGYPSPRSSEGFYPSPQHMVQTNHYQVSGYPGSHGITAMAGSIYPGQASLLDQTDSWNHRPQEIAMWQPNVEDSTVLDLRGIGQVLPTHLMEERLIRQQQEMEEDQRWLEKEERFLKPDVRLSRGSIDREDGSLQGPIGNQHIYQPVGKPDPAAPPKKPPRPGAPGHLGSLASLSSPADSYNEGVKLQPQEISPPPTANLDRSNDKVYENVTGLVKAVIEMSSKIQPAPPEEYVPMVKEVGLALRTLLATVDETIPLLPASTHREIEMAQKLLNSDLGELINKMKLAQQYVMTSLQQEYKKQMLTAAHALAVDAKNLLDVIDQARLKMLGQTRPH
Protocol: as §1

FTC133 cells = test: Boyden chamber migration assay, FTC133; format: cell-based, Human; details: 2.5 μM or 5.0 μM, 12 hours
Protocol: as §2

FGFR2 = FGFR2 (Homo sapiens, UniProt P21802); test: Kinase profiling panel: FGFR2; format: biochemical; details: 5 μM compound; average of triplicate
Protocol: as §1

PAK4 = PAK4 (Homo sapiens, UniProt O96013); test: Kinase profiling panel: PAK4; format: biochemical; details: 5 μM compound; average of triplicate
Chain of PAK4 (O96013 whole entry, species assumed): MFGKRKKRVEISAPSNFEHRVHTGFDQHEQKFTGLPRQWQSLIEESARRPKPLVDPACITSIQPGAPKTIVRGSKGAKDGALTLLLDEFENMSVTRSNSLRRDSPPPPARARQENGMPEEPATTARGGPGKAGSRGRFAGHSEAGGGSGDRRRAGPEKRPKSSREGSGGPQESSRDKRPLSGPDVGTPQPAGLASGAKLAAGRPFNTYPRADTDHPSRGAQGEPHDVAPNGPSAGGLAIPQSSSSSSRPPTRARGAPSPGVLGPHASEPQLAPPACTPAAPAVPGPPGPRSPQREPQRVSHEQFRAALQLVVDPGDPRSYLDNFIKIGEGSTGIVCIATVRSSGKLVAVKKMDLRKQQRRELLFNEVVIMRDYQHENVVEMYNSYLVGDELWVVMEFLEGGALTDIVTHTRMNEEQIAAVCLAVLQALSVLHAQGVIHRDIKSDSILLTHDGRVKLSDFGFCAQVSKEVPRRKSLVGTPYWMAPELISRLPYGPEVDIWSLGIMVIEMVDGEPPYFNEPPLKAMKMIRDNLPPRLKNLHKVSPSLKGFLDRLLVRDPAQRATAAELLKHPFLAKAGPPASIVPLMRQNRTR
Protocol: as §1

Chain of PKBβ (P31751 whole entry, species assumed): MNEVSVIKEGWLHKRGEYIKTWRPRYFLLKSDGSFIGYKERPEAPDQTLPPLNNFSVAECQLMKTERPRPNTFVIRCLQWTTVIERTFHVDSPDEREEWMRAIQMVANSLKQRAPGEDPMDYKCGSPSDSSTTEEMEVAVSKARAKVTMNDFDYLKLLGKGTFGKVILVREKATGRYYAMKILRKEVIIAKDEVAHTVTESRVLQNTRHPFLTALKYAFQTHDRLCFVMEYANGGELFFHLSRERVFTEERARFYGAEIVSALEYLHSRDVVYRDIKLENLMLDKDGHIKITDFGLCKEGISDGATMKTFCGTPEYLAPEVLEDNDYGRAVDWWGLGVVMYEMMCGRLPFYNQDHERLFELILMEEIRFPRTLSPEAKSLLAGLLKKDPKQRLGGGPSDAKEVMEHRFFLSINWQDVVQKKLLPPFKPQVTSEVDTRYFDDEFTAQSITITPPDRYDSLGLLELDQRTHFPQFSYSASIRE

Compound	remaining activity at 5 µM (PKBβ; 5 μM compound, average of triplicate) [%]	Migration of BCPAP cells (BCPAP cells)	% activity vs. DMSO, PKCδ (PKCδ) [%]	% activity vs. DMSO, PAK6 (PAK6) [%]	% activity vs. DMSO, Src(T341M) (Src(T341M)) [%]	IC50 (TPC1 cells) [µM]	% activity vs. DMSO, PAK5 (PAK5) [%]	% activity vs. DMSO, PKCα (PKCα) [%]	% activity vs. DMSO, FAK (FAK) [%]	Migration of FTC133 cells (FTC133 cells)	% activity vs. DMSO, FGFR2 (FGFR2) [%]	% activity vs. DMSO, PAK4 (PAK4) [%]	remaining activity at 5 µM (PKBβ) [%]
NCCC(=O)Nc1ccc(-n2nc(C(F)(F)F)cc2-c2ccc3ccc4ccccc4c3c2)cc1 [Compound 4, 3-amino-N-(4-(5-(phenanthren-3-yl)-3-(trifluoromethyl)-1H-pyrazol-1-yl)phenyl)-propanamide]	76	inhibited migration	85	81	105	1.68 ± 0.32	114	92	87	not inhibited; also recorded: neither compound significantly inhibited migration	92	101	–
CC(C)NC(=O)c1cc(-c2ccc3ccc4ccccc4c3c2)n(-c2ccc(NC(=O)CN)cc2)n1 [Compound 15, 1-(4-(2-Aminoacetamido)phenyl)-N-isopropyl-5-(phenanthren-3-yl)-1H-pyrazole-3-carboxamide]	–	inhibited migration	110	101	94	2.66 ± 1.05	104	92	96	not inhibited; also recorded: neither compound significantly inhibited migration	99	105	84
